From article PMC9250534, “Synthesis and direct assay of large macrocycle diversities by combinatorial late-stage modification at picomole scale” (Nature Communications, 2022)
Numbered stars: 1 amine (or outer) side, 2 acyl side, 3 side chain; on linkers, the order of the positions; unused ones are H or OH. Bridge positions count the residues as written; N and C are the ends. Square brackets hold non-standard residues; d marks the D form. Peptide text beside a SMILES is read from it. * marks the point of attachment. ξ: configuration not given here. Pro(cis-4-NHBenzoyl(4-Cl)) = O=C(N[C@@H]1CN[C@H](C(=O)O)C1)c1ccc(Cl)cc1; ξPro(4-NHCO(5-Cl-2-thienyl)) = O=C(NC1CNC(C(=O)O)C1)c1ccc(Cl)s1; ξPro(4ξ-NHCOC6H4-4-Cl) = O=C(NC1CNC(C(=O)O)C1)c1ccc(Cl)cc1; Acetyl(4-pyridyl) = O=C(Cc1ccncc1)*; 2Thenoyl(5-Cl) = O=C(c1ccc(Cl)s1)*; Benzoyl(4-Cl) = O=C(c1ccc(Cl)cc1)*; Cysteamide = C(CS[*:3])N[*:1]; X1 = O=C(/C=C/c1ccccc1)*; Api = NC1(C(=O)O)CCNCC1; Dap = NC[C@H](N)C(=O)O; Bz = O=C(c1ccccc1)*; Mpa = O=C(O)CCS

Molecular target: MDM2 (Homo sapiens, UniProt Q00987)
Sequence (Q00987 whole entry): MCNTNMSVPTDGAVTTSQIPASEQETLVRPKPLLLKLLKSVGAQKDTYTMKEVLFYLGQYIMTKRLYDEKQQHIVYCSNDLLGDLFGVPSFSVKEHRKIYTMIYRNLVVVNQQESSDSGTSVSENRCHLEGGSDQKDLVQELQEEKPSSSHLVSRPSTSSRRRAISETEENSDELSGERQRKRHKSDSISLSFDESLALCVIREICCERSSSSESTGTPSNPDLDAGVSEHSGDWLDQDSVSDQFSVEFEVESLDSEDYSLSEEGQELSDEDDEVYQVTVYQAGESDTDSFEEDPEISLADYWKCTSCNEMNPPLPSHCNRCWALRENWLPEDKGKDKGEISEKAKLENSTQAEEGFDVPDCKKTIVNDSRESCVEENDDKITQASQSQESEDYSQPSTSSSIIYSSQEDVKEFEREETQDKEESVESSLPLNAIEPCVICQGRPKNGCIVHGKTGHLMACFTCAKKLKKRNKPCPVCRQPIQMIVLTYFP
Assay: MDM2 binding screen: displacement of fluorescent p53 peptide probe FP53 (fluorescence polarization)
Details: for fraction fluorescent probe displaced, Screen: initial screen; for fraction fluorescent probe displaced, Screen / fraction fluorescent probe displaced, Replicate: crude macrocycle reactions
Protocol: We screened Library 2 in 384-microwell plates by dispensing the target protein MDM2 and reporter peptide into the wells containing the macrocycle reactions.
The products were screened for displacement of a p53-based fluorescent peptide from human MDM2. Final macrocycle concentrations were 10 µM. For each macrocycle, the MDM2 binding was measured once.
One fluorescence anisotropy reading was taken with a Tecan Infinite F200 Pro fluorescence plate reader (excitation at 485 nm, emission at 535 nm) at 25 °C. Data was collected and exported using the Tecan Infinite M200 Pro instrument software. The data was analyzed by Excel (version 2016).

[1] = 10 µM macrocycle concentration, crude acylated macrocycle (scaffold Mpa-AA1-AA2-AA3 x carboxylic acid), p53-based fluorescent peptide, human MDM2

O=C1NC(Cc2c[nH]c3ccccc23)C(=O)NCCSSCCC(=O)N2CCN(C(=O)c3ccc(Cl)cc3)CC2C(=O)N2CCCC1C2 (mixture of isomers) [X D7 B4 W Acid 25]
fraction fluorescent probe displaced, Screen (Acid 25): 0.25
fraction fluorescent probe displaced, Replicate (Acid 25, replicate): 0.25

O=C(/C=C/c1ccccc1)NC[C@@H]1NC(=O)[C@H](Cc2c[nH]c3ccccc23)NC(=O)[C@@H]2CCCN2C(=O)CCSSCCNC1=O [X B1 W D3 Acid 91] ([Mpa]PW[Dap](X1)-Cysteamide; disulfide 1-C)
fraction fluorescent probe displaced, Screen (Acid 91): 0.08
fraction fluorescent probe displaced, Replicate (Acid 91, replicate): 0.04

O=C(C=Cc1ccccc1)NC1CC2C(=O)NCCSSCCC(=O)N3CCCC(C3)C(=O)NC(Cc3ccccc3)C(=O)N2C1 (stereo not shown) [X B4 F D5 Acid 91]
fraction fluorescent probe displaced, Screen (Acid 91): -0.05
fraction fluorescent probe displaced, Replicate (Acid 91, replicate): -0.0333

O=C1CCSSCCNC(=O)[C@H](Cc2c[nH]c3ccccc23)NC(=O)c2cccc(c2)CNC(=O)[C@H](CNC(=O)c2ccc(Cl)cc2)N1 [X D3 B5 W Acid 25]
fraction fluorescent probe displaced, Screen (Acid 25): 0.25
fraction fluorescent probe displaced, Replicate (Acid 25, replicate): 0.10

O=C1NC2(CCN(C(=O)c3ccc(Cl)s3)CC2)C(=O)N[C@@H](Cc2ccccc2)C(=O)NCCSSCCC(=O)N2CCC[C@H]1C2 [X B4 D6 F + Acid 14]
fraction fluorescent probe displaced (crude reaction of macrocycle scaffold with Acid 14, (initial screen)): 0.25
fraction fluorescent probe displaced (crude reaction of macrocycle scaffold with Acid 14, replicate): 0.12

O=C1CCSSCCNC(=O)[C@H](CNC(=O)c2ccc(Cl)s2)NC(=O)c2cccc(c2)CNC(=O)[C@H](Cc2c[nH]c3ccccc23)N1 [X W B5 D3 Acid 14]
fraction fluorescent probe displaced, Screen (Acid 14): 0.20
fraction fluorescent probe displaced, Replicate (Acid 14, replicate): 0.30

O=C1CCSSCCNC(=O)C2CN(C(=O)c3ccc(Cl)cc3)CCN2C(=O)C2CCCN2C(=O)C(Cc2c[nH]c3ccccc23)N1 (stereo not shown) [X W B1 D7 Acid 25]
fraction fluorescent probe displaced, Screen (Acid 25): 0.19
fraction fluorescent probe displaced, Replicate (Acid 25, replicate): 0.17

O=C1CCSSCCNC(=O)[C@H](Cc2c[nH]c3ccccc23)NC(=O)c2cccc(c2)CNC(=O)[C@H](CNC(=O)c2ccc(Cl)s2)N1 [X D3 B5 W Acid 14]
fraction fluorescent probe displaced, Screen (Acid 14): 0.14
fraction fluorescent probe displaced, Replicate (Acid 14, replicate): 0.20

O=C1CCSSCCNC(=O)C2CC(NC(=O)c3ccc(Cl)s3)CN2C(=O)C2CCCN2C(=O)C(Cc2c[nH]c3ccccc23)N1 (stereo not shown) [X W B1 D5 Acid 14] ([Mpa]WP[ξPro(4-NHCO(5-Cl-2-thienyl))]-Cysteamide; disulfide 1-C; configuration not given here)
fraction fluorescent probe displaced, Screen (Acid 14): 0.0241
fraction fluorescent probe displaced, Replicate (Acid 14, replicate): 0.17

O=C1CCSSCCNC(=O)C2CN(C(=O)C=Cc3ccccc3)CCN2C(=O)C(Cc2c[nH]c3ccccc23)NC(=O)c2cccc(c2)CN1 (stereo not shown) [X B5 W D7 Acid 91]
fraction fluorescent probe displaced, Screen (Acid 91): 0.03
fraction fluorescent probe displaced, Replicate (Acid 91, replicate): -0.00827

O=C(NC1CC2C(=O)NCCSSCCC(=O)N3CCCC3C(=O)NC(Cc3ccccc3)C(=O)N2C1)c1ccc(Cl)s1 (stereo not shown) [X B1 F D5 Acid 14] ([Mpa]PF[ξPro(4-NHCO(5-Cl-2-thienyl))]-Cysteamide; disulfide 1-C; configuration not given here)
fraction fluorescent probe displaced, Screen (Acid 14): 0.11
fraction fluorescent probe displaced, Replicate (Acid 14, replicate): 0.07

O=C1CCSSCCNC(=O)C2(CCN(C(=O)C=Cc3ccccc3)CC2)NC(=O)CCNC(=O)C(Cc2ccccc2)N1 (stereo not shown) [X F B2 D6 Acid 91]
fraction fluorescent probe displaced, Screen (Acid 91): 0.0563
fraction fluorescent probe displaced, Replicate (Acid 91, replicate): -0.00827

O=C1CCSSCCNC(=O)[C@H]2CCCN(C2)C(=O)[C@H](CNC(=O)c2ccc(Cl)cc2)NC(=O)[C@H](Cc2c[nH]c3ccccc23)N1 [X W D3 B4 Acid 25]
fraction fluorescent probe displaced, Screen (Acid 25): 0.28
fraction fluorescent probe displaced, Replicate (Acid 25, replicate): 0.12

O=C1CCSSCCNC(=O)[C@H](CNC(=O)c2ccc(Cl)s2)NC(=O)[C@@H]2CCCN2C(=O)[C@H](Cc2c[nH]c3ccccc23)N1 [X W B1 D3 Acid 14] ([Mpa]WP[Dap](2Thenoyl(5-Cl))-Cysteamide; disulfide 1-C)
fraction fluorescent probe displaced, Screen (Acid 14): 0.14
fraction fluorescent probe displaced, Replicate (Acid 14, replicate): 0.22

O=C(/C=C/c1ccccc1)NC[C@@H]1NC(=O)CCSSCCNC(=O)[C@H](Cc2c[nH]c3ccccc23)NC(=O)[C@@H]2CCCN2C1=O [X D3 B1 W Acid 91] ([Mpa][Dap](X1)PW-Cysteamide; disulfide 1-C)
fraction fluorescent probe displaced, Screen (Acid 91): -0.0241
fraction fluorescent probe displaced, Replicate (Acid 91, replicate): 0.04

O=C(/C=C/c1ccccc1)NC[C@@H]1NC(=O)[C@H](Cc2ccccc2)NC(=O)CCSSCCNC(=O)[C@@H]2CCCN2C1=O [X F D3 B1 Acid 91] ([Mpa]F[Dap](X1)P-Cysteamide; disulfide 1-C)
fraction fluorescent probe displaced, Screen (Acid 91): -0.0241
fraction fluorescent probe displaced, Replicate (Acid 91, replicate): -0.00827

O=C(N[C@H]1C[C@H]2C(=O)N[C@@H](Cc3ccccc3)C(=O)NCCSSCCC(=O)N3CCC[C@H]3C(=O)N2C1)c1ccc(Cl)cc1 [X B1 D5 F Acid 25] ([Mpa]P[Pro(cis-4-NHBenzoyl(4-Cl))]F-Cysteamide; disulfide 1-C)
fraction fluorescent probe displaced, Screen (Acid 25): 0.16
fraction fluorescent probe displaced, Replicate (Acid 25, replicate): 0.15

O=C1CCSSCCNC(=O)[C@H]2CCCN(C2)C(=O)[C@H](Cc2c[nH]c3ccccc23)NC(=O)C2(CCN(C(=O)c3ccc(Cl)cc3)CC2)N1 [X D6 W B4 Acid 25]
fraction fluorescent probe displaced, Screen (Acid 25): 0.28
fraction fluorescent probe displaced, Replicate (Acid 25, replicate): 0.22

O=C1CCSSCCNC(=O)[C@@H]2CCCN2C(=O)[C@H](CNC(=O)c2ccc(Cl)cc2)NC(=O)[C@H](Cc2c[nH]c3ccccc23)N1 [X W D3 B1 Acid 25] ([Mpa]W[Dap](Benzoyl(4-Cl))P-Cysteamide; disulfide 1-C)
fraction fluorescent probe displaced, Screen (Acid 25): 0.32
fraction fluorescent probe displaced, Replicate (Acid 25, replicate): 0.30

O=C(N[C@H]1C[C@H]2C(=O)NCCSSCCC(=O)N3CCC[C@@H](C3)C(=O)N[C@@H](Cc3c[nH]c4ccccc34)C(=O)N2C1)c1ccc(Cl)s1 [X B4 W D5 Acid 14]
fraction fluorescent probe displaced, Screen (Acid 14): 0.08
fraction fluorescent probe displaced, Replicate (Acid 14, replicate): -0.03

O=C(NC[C@@H]1NC(=O)[C@@H]2CCCN2C(=O)CCSSCCNC(=O)[C@H](Cc2ccccc2)NC1=O)c1ccccc1 [X-B1-D3-F + A1] ([Mpa]P[Dap](Bz)F-Cysteamide; disulfide 1-C)
fraction fluorescent probe displaced [1]: -0.005048

O=C1CCSSCCNC(=O)[C@H]2CCCN(C2)C(=O)[C@H](CNC(=O)c2ccc(Cl)s2)NC(=O)[C@H](Cc2ccccc2)N1 [X F D3 B4 Acid 14]
fraction fluorescent probe displaced, Screen (Acid 14): 0.053
fraction fluorescent probe displaced, Replicate (Acid 14, replicate): 0.10

O=C1CCSSCCNC(=O)C(Cc2c[nH]c3ccccc23)NC(=O)C2CCCN(C2)C(=O)C2(CCN(C(=O)C=Cc3ccccc3)CC2)N1 (stereo not shown) [X D6 B4 W Acid 91]
fraction fluorescent probe displaced, Screen (Acid 91): 0.11
fraction fluorescent probe displaced, Replicate (Acid 91, replicate): 0.0168

O=C(NC1CC2C(=O)NC(Cc3c[nH]c4ccccc34)C(=O)N3CCCC3C(=O)NCCSSCCC(=O)N2C1)c1ccc(Cl)cc1 (stereo not shown) [X D5 W B1 Acid 25] ([Mpa][ξPro(4ξ-NHCOC6H4-4-Cl)]WP-Cysteamide; disulfide 1-C; configuration not given here)
fraction fluorescent probe displaced, Screen (Acid 25): 0.22
fraction fluorescent probe displaced, Replicate (Acid 25, replicate): 0.10

O=C1CCSSCCNC(=O)C2(CCN(C(=O)c3ccc(Cl)s3)CC2)NC(=O)CCNC(=O)C(Cc2ccccc2)N1 (stereo not shown) [X F B2 D6 Acid 14]
fraction fluorescent probe displaced, Screen (Acid 14): 0.20
fraction fluorescent probe displaced, Replicate (Acid 14, replicate): 0.0465

O=C(Cc1ccncc1)NC[C@@H]1NC(=O)[C@@H]2CCCN2C(=O)CCSSCCNC(=O)[C@H](Cc2ccccc2)NC1=O [X-B1-D3-F + A70] ([Mpa]P[Dap](Acetyl(4-pyridyl))F-Cysteamide; disulfide 1-C)
fraction fluorescent probe displaced [1]: -0.04156

O=C1CCSSCCNC(=O)[C@H](Cc2c[nH]c3ccccc23)NC(=O)[C@@H]2CCCN2C(=O)[C@H](CNC(=O)c2ccc(Cl)s2)N1 [X D3 B1 W Acid 14] ([Mpa][Dap](2Thenoyl(5-Cl))PW-Cysteamide; disulfide 1-C)
fraction fluorescent probe displaced, Screen (Acid 14): 0.17
fraction fluorescent probe displaced, Replicate (Acid 14, replicate): 0.10

O=C1CCSSCCNC(=O)c2cccc(c2)CNC(=O)C(Cc2c[nH]c3ccccc23)NC(=O)C2(CCN(C(=O)c3ccc(Cl)s3)CC2)N1 (stereo not shown) [X D6 W B5 Acid 14]
fraction fluorescent probe displaced, Screen (Acid 14): 0.11
fraction fluorescent probe displaced, Replicate (Acid 14, replicate): 0.25

O=C(N[C@H]1C[C@H]2C(=O)NCc3cccc(c3)C(=O)N[C@@H](Cc3ccccc3)C(=O)NCCSSCCC(=O)N2C1)c1ccc(Cl)cc1 [X D5 B5 F Acid 25]
fraction fluorescent probe displaced, Screen (Acid 25): -0.00813
fraction fluorescent probe displaced, Replicate (Acid 25, replicate): 0.15

O=C(NCC1NC(=O)C2CCCN(C2)C(=O)CCSSCCNC(=O)C(Cc2ccccc2)NC1=O)c1ccc(Cl)s1 (stereo not shown) [X B4 D3 F Acid 14]
fraction fluorescent probe displaced, Screen (Acid 14): 0.14
fraction fluorescent probe displaced, Replicate (Acid 14, replicate): 0.15

O=C1CCSSCCNC(=O)C2(CCN(C(=O)/C=C/c3ccccc3)CC2)NC(=O)[C@H](Cc2ccccc2)NC(=O)CCN1 [X B2 F D6 Acid 91]
fraction fluorescent probe displaced, Screen (Acid 91): 0.0563
fraction fluorescent probe displaced, Replicate (Acid 91, replicate): 0.12

O=C(/C=C/c1ccccc1)NC[C@@H]1NC(=O)CCNC(=O)[C@H](Cc2ccccc2)NC(=O)CCSSCCNC1=O [X F B2 D3 Acid 91]
fraction fluorescent probe displaced, Screen (Acid 91): 0.03
fraction fluorescent probe displaced, Replicate (Acid 91, replicate): 0.04

O=C1CCSSCCNC(=O)[C@@H]2CCCN2C(=O)[C@H](Cc2c[nH]c3ccccc23)NC(=O)C2(CCN(C(=O)/C=C/c3ccccc3)CC2)N1 [X D6 W B1 Acid 91] ([Mpa][Api](X1)WP-Cysteamide; disulfide 1-C)
fraction fluorescent probe displaced, Screen (Acid 91): 0.08
fraction fluorescent probe displaced, Replicate (Acid 91, replicate): 0.04
